Reference: the supplement of paper PMC7017272
± gives the standard deviation of the averaged measurements.

Tests used:
Details in all cases: treatment time: 3 days
UT-SCC-42B = assay: drug sensitivity score (DSS); higher = more sensitive; extreme values may be limits of the assay
Summary of the method: (§1)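 Viability of HPV-negative HNSCC cell lines was measured by CellTiter-Glo 2.0 luminescence. Cells were seeded at 500 cells/well in 384-well plates on plastic, on Matrigel- or Myogel-coated wells (500 µg/mL), or embedded in Matrigel or Myogel plus rat collagen I, then given compounds at five 10-fold concentrations for 3 days, with signals normalised to vehicle (0.1% DMSO) and cell-killing control wells. Fitting of percent-inhibition dose–response curves in the FIMM pipeline yielded IC50, maximal inhibition and drug sensitivity score.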

UT-SCC-28 = assay: as above
Summary of the method: as §1

UT-SCC-44 = assay: as above
Summary of the method: as §1

UT-SCC-73 = assay: as above
Summary of the method: as §1

UT-SCC-106A = assay: as above
Summary of the method: as §1

UT-SCC-40 = assay: as above
Summary of the method: as §1

UT-SCC-42A = assay: as above
Summary of the method: as §1

UT-SCC-24B = assay: as above
Summary of the method: as §1

UT-SCC-14 = assay: as above
Summary of the method: as §1

UT-SCC-8 = assay: as above
Summary of the method: as §1

UT-SCC-81 = assay: as above
Summary of the method: as §1

UT-SCC-24A = assay: drug sensitivity score (DSS); higher = more sensitive
Protocol: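 HNSCC cell lines (500 cells/well, 384-well) were cultured on plastic, on top of (2D) or embedded (3D) in Matrigel or human leiomyoma matrix Myogel (500 ug/mL; Myogel 3D mixed with rat collagen I). Cells were treated for 3 days with 5 ten-fold concentrations of each drug, and viability was read by CellTiter-Glo. Suffixes _1/_2/_3 on drug names are replicates.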

[1] = culture condition: embedded in Matrigel
[2] = culture condition: on top of Matrigel
[3] = culture condition: on top of Myogel
[4] = culture condition: plastic 2D (no matrix)
[5] = culture condition: embedded in Myogel + collagen I

## COc1cc2ncnc(Nc3ccc(F)c(Cl)c3)c2cc1OCCCN1CCOCC1 [Gefitinib]
UT-SCC-42B; [1]
  drug sensitivity score: 12.3 ± 6.1 DSS
UT-SCC-42B; [2]
  drug sensitivity score: 2.67 ± 4.6 DSS
UT-SCC-42B; [3]
  drug sensitivity score: 0 DSS
UT-SCC-42B; [4]
  drug sensitivity score: 1.07 ± 1.7 DSS
UT-SCC-28; [1]
  drug sensitivity score: 0.767 ± 1.3 DSS
UT-SCC-28; [5]
  drug sensitivity score: 0 DSS
UT-SCC-28; [2]
  drug sensitivity score: 0.433 ± 0.75 DSS
UT-SCC-28; [4]
  drug sensitivity score: 0 DSS
UT-SCC-44; [1]
  drug sensitivity score: 0 DSS
UT-SCC-44; [5]
  drug sensitivity score: 0.567 ± 0.98 DSS
UT-SCC-44; [2]
  drug sensitivity score: 0.5 ± 0.7 DSS
UT-SCC-44; [3]
  drug sensitivity score: 1.03 ± 1.5 DSS
UT-SCC-44; [4]
  drug sensitivity score: 0.167 ± 0.29 DSS
UT-SCC-73; [1]
  drug sensitivity score: 0.0667 ± 0.12 DSS
UT-SCC-73; [5]
  drug sensitivity score: 1.73 ± 3 DSS
UT-SCC-73; [2]
  drug sensitivity score: 1.23 ± 2.1 DSS
UT-SCC-73; [3]
  drug sensitivity score: 0.133 ± 0.15 DSS
UT-SCC-73; [4]
  drug sensitivity score: 0.2 ± 0.27 DSS
UT-SCC-106A; [1]
  drug sensitivity score: 4.63 ± 3.7 DSS
UT-SCC-106A; [5]
  drug sensitivity score: 0.4 ± 0.69 DSS
UT-SCC-106A; [2]
  drug sensitivity score: 8.13 ± 3.1 DSS
UT-SCC-106A; [3]
  drug sensitivity score: 0.1 ± 0.17 DSS
UT-SCC-106A; [4]
  drug sensitivity score: 7.53 ± 1 DSS
UT-SCC-40; [1]
  drug sensitivity score: 6.87 ± 1.9 DSS
UT-SCC-40; [5]
  drug sensitivity score: 2.33 ± 2.6 DSS
UT-SCC-40; [2]
  drug sensitivity score: 3.7 ± 0.7 DSS
UT-SCC-40; [3]
  drug sensitivity score: 0.433 ± 0.51 DSS
UT-SCC-40; [4]
  drug sensitivity score: 0.267 ± 0.25 DSS
UT-SCC-42A; [5]
  drug sensitivity score: 0 DSS
UT-SCC-42A; [2]
  drug sensitivity score: 5 ± 4 DSS
UT-SCC-42A; [3]
  drug sensitivity score: 1.43 ± 1.6 DSS
UT-SCC-42A; [4]
  drug sensitivity score: 2 ± 1.4 DSS
UT-SCC-24B; [1]
  drug sensitivity score: 12.5 ± 1.3 DSS
UT-SCC-24B; [5]
  drug sensitivity score: 10.1 ± 3.4 DSS
UT-SCC-24B; [2]
  drug sensitivity score: 12.4 ± 1 DSS
UT-SCC-24B; [3]
  drug sensitivity score: 5.73 ± 1.2 DSS
UT-SCC-24B; [4]
  drug sensitivity score: 17.5 ± 0.64 DSS
UT-SCC-14; [5]
  drug sensitivity score: 1.63 ± 2.7 DSS
UT-SCC-14; [2]
  drug sensitivity score: 3.87 ± 2.3 DSS
UT-SCC-14; [3]
  drug sensitivity score: 3.33 ± 3 DSS
UT-SCC-14; [4]
  drug sensitivity score: 2.6 ± 4.5 DSS
UT-SCC-8; [1]
  drug sensitivity score: 14 ± 4.7 DSS
UT-SCC-8; [5]
  drug sensitivity score: 0 DSS
UT-SCC-8; [2]
  drug sensitivity score: 7.87 ± 2.8 DSS
UT-SCC-8; [3]
  drug sensitivity score: 2.4 ± 3.8 DSS
UT-SCC-8; [4]
  drug sensitivity score: 5.97 ± 4.5 DSS
UT-SCC-81; [1]
  drug sensitivity score: 23.2 ± 0.32 DSS
UT-SCC-81; [5]
  drug sensitivity score: 1.57 ± 2.7 DSS
UT-SCC-81; [2]
  drug sensitivity score: 10.8 ± 5.8 DSS
UT-SCC-81; [3]
  drug sensitivity score: 1 ± 1.1 DSS
UT-SCC-81; [4]
  drug sensitivity score: 3.83 ± 5.2 DSS
UT-SCC-24A; [1]
  drug sensitivity score: 21.1 ± 1.1 DSS
UT-SCC-24A; [2]
  drug sensitivity score: 17 ± 2.1 DSS
UT-SCC-24A; [3]
  drug sensitivity score: 3.27 ± 2.5 DSS
UT-SCC-24A; [4]
  drug sensitivity score: 16.4 ± 3.7 DSS
